Test results taken from patent publication US12264158B2, “Protein kinase MKK4 inhibitors for promoting liver regeneration or reducing or preventing hepatocyte death” (HEPAREGENIX GMBH, priority 2018, dated 2025).

Assays:
Conditions in all cases: concentration of 100 nM
JNK1 = target: T1, JNK1 (Homo sapiens, UniProt P45983); assay: KINOMEscan competition binding assay, selectivity against off-target JNK1
T1 construct: M1/Q384; host or cells: HEK-293
Experimental: (§1) The assay was performed by combining three components: DNA-tagged kinase; immobilized ligand; and a test compound. The ability of the test compound to compete with the immobilized ligand was measured via quantitative PCR of the DNA tag. The technology is described in detail in Fabian, M. A. et al. A small molecule-kinase interaction map for clinical kinase inhibitors. Nat. […] M. W. et al. A quantitative analysis of kinase inhibitor selectivity, Nat.
(§2) For investigation of the affinity to MKK4, MKK7 and JNK1, the kinases were produced in HEK-293 cells and subsequently tagged with DNA for qPCR detection. […] The liganded beads were blocked with excess biotin and washed with blocking buffer (SEABLOCK™ (Pierce), 1% BSA, 0.05% TWEEN®20, 1 mM DTT) to remove unbound ligand and to reduce nonspecific binding. […] All reactions were performed in polystyrene 96-well plates in a final volume of 0.135 mL. […] The kinase concentration in the eluates was measured by qPCR.
(§3) The test compounds were provided as 10 mM stock solutions. The test solutions at indicated final concentrations were prepared at DiscoverX.

MKK4 = target: T2, MKK4 (Homo sapiens, UniProt P45985); assay: KINOMEscan competition binding assay, MKK4 potency
T2 construct: S84/D399; host or cells: HEK-293
T2 sequence (P45985 84-399): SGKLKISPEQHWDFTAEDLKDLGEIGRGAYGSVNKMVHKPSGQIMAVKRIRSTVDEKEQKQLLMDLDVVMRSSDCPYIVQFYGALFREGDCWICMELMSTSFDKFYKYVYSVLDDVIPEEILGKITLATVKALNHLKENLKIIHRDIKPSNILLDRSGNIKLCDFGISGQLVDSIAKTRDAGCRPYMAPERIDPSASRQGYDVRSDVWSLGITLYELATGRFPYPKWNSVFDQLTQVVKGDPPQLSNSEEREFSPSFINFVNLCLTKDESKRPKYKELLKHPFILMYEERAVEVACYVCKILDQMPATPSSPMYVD
Experimental: as §1, §2, §3

BRaf = BRaf (Homo sapiens, UniProt P15056); assay: KINOMEscan competition binding assay, selectivity against off-target BRaf
BRaf, sequence (P15056 whole entry): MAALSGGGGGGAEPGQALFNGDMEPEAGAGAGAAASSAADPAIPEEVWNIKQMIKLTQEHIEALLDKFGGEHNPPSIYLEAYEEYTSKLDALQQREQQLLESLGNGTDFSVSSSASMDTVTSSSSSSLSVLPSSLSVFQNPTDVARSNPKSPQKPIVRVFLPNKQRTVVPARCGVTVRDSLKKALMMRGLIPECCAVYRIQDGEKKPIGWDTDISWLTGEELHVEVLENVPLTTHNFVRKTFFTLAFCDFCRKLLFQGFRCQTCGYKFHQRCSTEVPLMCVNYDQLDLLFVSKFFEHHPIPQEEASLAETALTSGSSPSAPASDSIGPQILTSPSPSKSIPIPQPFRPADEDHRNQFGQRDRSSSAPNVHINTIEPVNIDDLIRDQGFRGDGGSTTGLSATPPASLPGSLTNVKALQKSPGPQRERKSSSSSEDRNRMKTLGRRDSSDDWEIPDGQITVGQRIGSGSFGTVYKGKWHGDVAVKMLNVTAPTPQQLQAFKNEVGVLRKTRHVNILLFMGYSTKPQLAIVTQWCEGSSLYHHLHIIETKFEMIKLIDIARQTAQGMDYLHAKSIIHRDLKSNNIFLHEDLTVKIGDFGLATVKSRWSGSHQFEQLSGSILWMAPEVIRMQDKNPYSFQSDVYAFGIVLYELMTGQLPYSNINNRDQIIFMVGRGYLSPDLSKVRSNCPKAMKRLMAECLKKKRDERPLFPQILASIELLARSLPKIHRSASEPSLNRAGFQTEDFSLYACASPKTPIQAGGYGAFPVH
Experimental: as §1, §3

MKK7 = target: T3, MKK7 (Homo sapiens, UniProt O14733); assay: KINOMEscan competition binding assay, selectivity against off-target MKK7
T3 construct: M1/R419; host or cells: HEK-293
T3 sequence (O14733 1-419): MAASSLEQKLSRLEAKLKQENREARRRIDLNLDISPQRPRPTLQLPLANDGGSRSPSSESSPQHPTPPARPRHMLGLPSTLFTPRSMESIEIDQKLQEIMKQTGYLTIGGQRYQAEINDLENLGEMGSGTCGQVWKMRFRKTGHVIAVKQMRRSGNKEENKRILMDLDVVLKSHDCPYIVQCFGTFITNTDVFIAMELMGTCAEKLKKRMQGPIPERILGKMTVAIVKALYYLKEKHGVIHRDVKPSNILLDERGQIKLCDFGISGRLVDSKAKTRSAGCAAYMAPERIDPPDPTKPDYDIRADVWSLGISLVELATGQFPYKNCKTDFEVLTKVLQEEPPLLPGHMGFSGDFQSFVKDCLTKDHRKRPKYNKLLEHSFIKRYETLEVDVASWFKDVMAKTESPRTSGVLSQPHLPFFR
Experimental: as §1, §2, §3

T1 sequence (P45983 1-384 isoform P45983-2): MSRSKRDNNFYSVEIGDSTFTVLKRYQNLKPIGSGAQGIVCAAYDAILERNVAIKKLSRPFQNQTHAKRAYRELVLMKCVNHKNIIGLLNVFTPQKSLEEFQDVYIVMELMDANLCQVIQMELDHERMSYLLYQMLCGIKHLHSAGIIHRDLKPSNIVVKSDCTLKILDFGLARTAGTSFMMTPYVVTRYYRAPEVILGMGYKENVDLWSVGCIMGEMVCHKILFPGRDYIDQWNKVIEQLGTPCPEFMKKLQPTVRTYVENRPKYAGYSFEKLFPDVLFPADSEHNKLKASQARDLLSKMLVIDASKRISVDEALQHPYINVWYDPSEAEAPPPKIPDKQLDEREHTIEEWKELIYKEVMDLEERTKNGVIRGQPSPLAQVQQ

Row | Compound | Selectivity vs. JNK1, ratio PoC(JNK1)/PoC(MKK4) (JNK1) | MKK4, residual percent of control binding (PoC) (MKK4) | Selectivity vs. BRaf, ratio PoC(BRaf)/PoC(MKK4) (BRaf) | Selectivity vs. MKK7, ratio PoC(MKK7)/PoC(MKK4) (MKK7)
1 | CCCS(=O)(=O)Nc1ccc(F)c(C(=O)c2n[nH]c3ncc(-c4ccc(OC)cc4)cc23)c1F [Example 6, N-(2,4-difluoro-3-(5-(4-methoxyphenyl)-1H-pyrazo-lo[3,4-b]pyridine-3-carbonyl)-phenyl)propane-1-sulfon-amide] | ++ (30 > PoC(JNK1)/PoC(MKK4) ≥ 10) | ++ (1 ≤ PoC < 10) | O (PoC(BRaf)/PoC(MKK4) < 3) | ++ (30 > PoC(MKK7)/PoC(MKK4) ≥ 10)
2 | CCCS(=O)(=O)Nc1ccc(F)c(C(=O)c2n[nH]c3ncc(-c4cccc(Cl)c4)cc23)c1F [Example 7, N-(3-(5-(3-chlorophenyl)-1H-pyrazolo[3,4-b]pyridine-3-carbonyl)-2,4-difluorophenyl)-propane-1-sulfonamide] | O (PoC(JNK1)/PoC(MKK4) < 3) | O (PoC ≥ 30) | O (PoC(BRaf)/PoC(MKK4) < 3) | O (PoC(MKK7)/PoC(MKK4) < 3)
3 | CCCS(=O)(=O)Nc1ccc(F)c(C(=O)c2n[nH]c3ncc(-c4ccc(C(C)(C)C)cc4)cc23)c1F [Example 10, N-(3-(5-(4-tert-butylphenyl)-1H-pyrazolo[3,4-b]pyridine-3-carbonyl)-2,4-difluoro-phenyl)propane-1-sulfon-amide] | O (PoC(JNK1)/PoC(MKK4) < 3) | O (PoC ≥ 30) | O (PoC(BRaf)/PoC(MKK4) < 3) | O (PoC(MKK7)/PoC(MKK4) < 3)
4 | CCCS(=O)(=O)Nc1ccc(F)c(C(=O)c2n[nH]c3ncc(-c4ccc(C(C)C)cc4)cc23)c1F [Example 11, N-(2,4-difluoro-3-(5-(4-isopropylphenyl)-1H-pyrazo-lo[3,4-b]pyridine-3-carbonyl)phenyl)propane-1-sulfon-amide] | + (10 > PoC(JNK1)/PoC(MKK4) ≥ 3) | + (10 ≤ PoC < 30) | + (10 > PoC(BRaf)/PoC(MKK4) ≥ 3) | + (10 > PoC(MKK7)/PoC(MKK4) ≥ 3)
5 | CCCS(=O)(=O)Nc1ccc(F)c(C(=O)c2n[nH]c3ncc(-c4ccc(C)c(C)c4)cc23)c1F [Example 12, N-(3-(5-(3,4-dimethyl-phenyl)-1H-pyrazolo[3,4-b]pyridine-3-carbonyl)-2,4-difluorophenyl)-propane-1-sulfonamide] | + (10 > PoC(JNK1)/PoC(MKK4) ≥ 3) | + (10 ≤ PoC < 30) | O (PoC(BRaf)/PoC(MKK4) < 3) | + (10 > PoC(MKK7)/PoC(MKK4) ≥ 3)
6 | CCCS(=O)(=O)Nc1ccc(F)c(C(=O)c2n[nH]c3ncc(-c4cccc(F)c4)cc23)c1F [Example 16, N-(2,4-difluoro-3-(5-(3-fluorophenyl)-1H-pyrazo-lo[3,4-b]pyridine-3-carbonyl)-phenyl)propane-1-sulfon-amide] | ++ (30 > PoC(JNK1)/PoC(MKK4) ≥ 10) | ++ (1 ≤ PoC < 10) | O (PoC(BRaf)/PoC(MKK4) < 3) | ++ (30 > PoC(MKK7)/PoC(MKK4) ≥ 10)
7 | CCCS(=O)(=O)Nc1ccc(F)c(C(=O)c2n[nH]c3ncc(-c4ccc(C)cc4)cc23)c1F [Example 20, N-(2,4-difluoro-3-(5-p-tolyl-1H-pyrazolo[3,4-b]pyridine-3-carbonyl)phenyl)propane-1-sulfonamide] | ++ (30 > PoC(JNK1)/PoC(MKK4) ≥ 10) | ++ (1 ≤ PoC < 10) | O (PoC(BRaf)/PoC(MKK4) < 3) | ++ (30 > PoC(MKK7)/PoC(MKK4) ≥ 10)
8 | CCCS(=O)(=O)Nc1ccc(F)c(C(=O)c2n[nH]c3ncc(-c4cc(Cl)cc(Cl)c4)cc23)c1F [Example 22, N-(3-(5-(3,5-dichloro-phenyl)-1H-pyrazolo[3,4-b]pyridine-3-carbonyl)-2,4-difluoro-phenyl)propane-1-sulfon-amide] | O (PoC(JNK1)/PoC(MKK4) < 3) | O (PoC ≥ 30) | O (PoC(BRaf)/PoC(MKK4) < 3) | O (PoC(MKK7)/PoC(MKK4) < 3)
9 | CCCS(=O)(=O)Nc1ccc(F)c(C(=O)c2n[nH]c3ncc(-c4ccccc4N)cc23)c1F [Example 26, N-(3-(5-(2-aminophenyl)-1H-pyrazolo[3,4-b]pyridine-3-carbonyl)-2,4-difluorophenyl)-propane-1-sulfonamide] | + (10 > PoC(JNK1)/PoC(MKK4) ≥ 3) | + (10 ≤ PoC < 30) | + (10 > PoC(BRaf)/PoC(MKK4) ≥ 3) | + (10 > PoC(MKK7)/PoC(MKK4) ≥ 3)
10 | CCCS(=O)(=O)Nc1ccc(F)c(C(=O)c2n[nH]c3ncc(-c4cccc(N(C)C)c4)cc23)c1F [Example 28, N-(3-(5-(3-(dimethyl-amino)phenyl)-1H-pyrazo-lo[3,4-b]pyridine-3-carbonyl)-2,4-difluoro-phenyl)propane-1-sulfonamide] | + (10 > PoC(JNK1)/PoC(MKK4) ≥ 3) | + (10 ≤ PoC < 30) | O (PoC(BRaf)/PoC(MKK4) < 3) | + (10 > PoC(MKK7)/PoC(MKK4) ≥ 3)
11 | CCCS(=O)(=O)Nc1ccc(F)c(C(=O)c2n[nH]c3ncc(-c4cccc(C)c4)cc23)c1F [Example 29, N-(2,4-difluoro-3-(5-m-tolyl-1H-pyrazolo[3,4-b]pyridine-3-carbonyl)phenyl)propane-1-sulfonamide] | + (10 > PoC(JNK1)/PoC(MKK4) ≥ 3) | + (10 ≤ PoC < 30) | O (PoC(BRaf)/PoC(MKK4) < 3) | + (10 > PoC(MKK7)/PoC(MKK4) ≥ 3)
12 | CCCS(=O)(=O)Nc1ccc(F)c(C(=O)c2n[nH]c3ncc(-c4cccc(C(F)(F)F)c4)cc23)c1F [Example 30, N-(2,4-difluoro-3-(5-(3-(trifluoromethyl)phenyl)-1H-pyrazolo[3,4-b]pyridine-3-carbonyl)phenyl)propane-1-sulfonamide] | O (PoC(JNK1)/PoC(MKK4) < 3) | O (PoC ≥ 30) | O (PoC(BRaf)/PoC(MKK4) < 3) | O (PoC(MKK7)/PoC(MKK4) < 3)
13 | CCCS(=O)(=O)Nc1ccc(F)c(C(=O)c2n[nH]c3ncc(-c4ccc(Cl)c(Cl)c4)cc23)c1F [Example 33, N-(3-(5-(3,4-dichloro-phenyl)-1H-pyrazolo[3,4-b]pyridine-3-carbonyl)-2,4-difluoro-phenyl)-propane-1-sulfon-amide] | O (PoC(JNK1)/PoC(MKK4) < 3) | O (PoC ≥ 30) | O (PoC(BRaf)/PoC(MKK4) < 3) | O (PoC(MKK7)/PoC(MKK4) < 3)
14 | CCCS(=O)(=O)Nc1ccc(F)c(C(=O)c2n[nH]c3ncc(-c4ccc(C(F)(F)F)cc4)cc23)c1F [Example 34, N-(2,4-difluoro-3-(5-(4-(trifluoromethyl)phenyl)-1H-pyrazolo[3,4-b]pyridine-3-carbonyl)-phenyl)propane-1-sulfonamide] | O (PoC(JNK1)/PoC(MKK4) < 3) | + (10 ≤ PoC < 30) | O (PoC(BRaf)/PoC(MKK4) < 3) | + (10 > PoC(MKK7)/PoC(MKK4) ≥ 3)
15 | CCCS(=O)(=O)Nc1ccc(F)c(C(=O)c2n[nH]c3ncc(-c4ccc(Cl)cc4Cl)cc23)c1F [Example 35, N-(3-(5-(2,4-dichlorophenyl)-1H-pyrazolo[3,4-b]pyridine-3-carbonyl)-2,4-difluoro-phenyl)propane-1-sulfonamide] | + (10 > PoC(JNK1)/PoC(MKK4) ≥ 3) | + (10 ≤ PoC < 30) | + (10 > PoC(BRaf)/PoC(MKK4) ≥ 3) | + (10 > PoC(MKK7)/PoC(MKK4) ≥ 3)
